One test deals with T1, human 11β-HSD1 (Homo sapiens, UniProt P28845).
T1 construct: 100 ug/ml human/mouse liver microsomes; from tissue; host or cells: human liver microsomes
The experiment in a line: Enzyme activity analysis on human 11β-HSD1 (HTRF cortisol, liver microsomes). The class given is biochemical. Conditions: first value of cell. The procedure: (§1) After culturing at 37° C. for 2 hours, 5 μl of cryptate-labeled anti-cortisol antibody and 5 μl of d2-labeled cortisol were added thereto. After further culturing at room temperature for 2 hours, a homogeneous time-resolved fluorescence (HTRF, Cisbio) signal was measured. From each analysis, based on a standard curve calculated using cortisols of several known concentrations, an amount of produced cortisol was tested.
(§2) While an amount of cortisol, produced without the compound, was used as a control, an inhibition percentage by the test compound, at each concentration, was calculated. By using an inhibition curve calculated by coordinates of inhibition percentage to test compound concentration, an IC50 value of the compound on 11β-HSD1 was obtained.
Background: TR-FRET usually uses a lanthanide donor and a delayed reading to cut background.

For the next test, the target named is T2, mouse 11β-HSD1 (Mus musculus, UniProt P50172).
T2 construct: 100 ug/ml human/mouse liver microsomes; from tissue; host or cells: mouse liver microsomes
T2 sequence (P50172 whole entry): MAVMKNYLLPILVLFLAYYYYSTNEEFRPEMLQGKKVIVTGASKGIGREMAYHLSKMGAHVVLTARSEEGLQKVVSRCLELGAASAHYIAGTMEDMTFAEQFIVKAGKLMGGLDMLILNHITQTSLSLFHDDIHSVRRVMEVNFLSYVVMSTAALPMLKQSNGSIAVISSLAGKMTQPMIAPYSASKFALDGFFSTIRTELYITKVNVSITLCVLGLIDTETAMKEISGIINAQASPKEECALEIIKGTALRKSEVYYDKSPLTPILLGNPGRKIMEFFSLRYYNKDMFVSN
The experiment in a line: Enzyme activity analysis on mouse 11β-HSD1 (HTRF cortisol, liver microsomes). In kind it is biochemical. To be noted: second value of cell. On the procedure:
as §1, §2

T1 sequence (P28845 whole entry): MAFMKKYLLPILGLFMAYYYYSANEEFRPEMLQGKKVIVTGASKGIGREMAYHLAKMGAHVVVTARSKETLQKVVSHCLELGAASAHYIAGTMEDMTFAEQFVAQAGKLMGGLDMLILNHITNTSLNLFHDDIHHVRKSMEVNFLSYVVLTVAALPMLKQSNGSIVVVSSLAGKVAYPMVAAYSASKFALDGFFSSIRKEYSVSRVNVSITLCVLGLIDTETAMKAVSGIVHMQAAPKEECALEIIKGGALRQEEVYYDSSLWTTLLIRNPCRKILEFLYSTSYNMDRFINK

As usually defined, the IC50 is the point on the concentration scale where inhibition reaches its midpoint. High values mean lower potency, low ones higher potency. For `CC(C)c1ccc(S(=O)(=O)NC(C)(C)C(=O)NC2C3CC4CC(C3)CC2C4)cc1` (stereo not drawn) [compound 57, N-(adamantane-2-yl)-2-methyl-2-(4-isopropylphenylsulfonamido)propanamide], the IC50 is 1.04 µM against human 11β-HSD1 and 1.32 µM on mouse 11β-HSD1.
The corresponding values for `O=C(NC1C2CC3CC(C2)CC1C3)C1(NS(=O)(=O)c2ccccc2[N+](=O)[O-])CCC1` (stereo not drawn) [compound 137, N-(adamantane-2-yl)-1-(2-nitrophenylsulfonamido)cyclobutanecarboxyamide] are 0.255 µM and 1.1 µM.
In the same order, the values of `NC(=O)C12CC3CC(C1)C(NC(=O)C1(NS(=O)(=O)c4ccccc4Br)CCCC1)C(C3)C2` (stereo not drawn) [compound 174, N-4-(1-(2-bromophenylsulfonamido)cyclopentanecarboxyamido)adamantane-1-carboxyamide] are 0.017 µM and 0.015 µM.
In the same order, the values of `CC(C)(NS(=O)(=O)c1cc(Cl)cc(Br)c1)C(=O)NC1C2CC3CC1CC(C(N)=O)(C3)C2` (stereo not drawn) [compound 125] are 0.021 µM and 0.168 µM.
For `CC(C)(NS(=O)(=O)Cc1ccc(Cl)c(Cl)c1)C(=O)NC1C2CC3CC(C2)CC1C3` (stereo not drawn) [compound 35, N-(adamantane-2-yl)-2-methyl-2-((3,4-dichlorophenyl)methylsulfonamido)propanamide], the half-maximal inhibitory concentration (IC50) on human 11β-HSD1 and at mouse 11β-HSD1 was more than 2.5 µM each time.
With `CC(C)(NS(=O)(=O)CCc1cccc2ccccc12)C(=O)NC1C2CC3CC(C2)CC1C3` (stereo not drawn) [compound 52, N-(adamantane-2-yl)-2-methyl-2-(2-(naphthalene-1-yl)ethylsulfonamido)propanamide], the figures for the IC50 against human 11β-HSD1 and at mouse 11β-HSD1 were 1.17 µM and 2.14 µM, respectively.
In the same order, the values of `O=C(NC1C2CC3CC(C2)CC1C3)C1(NS(=O)(=O)c2cccc([N+](=O)[O-])c2)CCC1` (stereo not drawn) [compound 142, N-(adamantane-2-yl)-1-(3-nitrophenylsulfonamido)cyclobutanecarboxyamide] are more than 2.5 µM and 1.44 µM.
The corresponding values for `CCN(C(C)(C)C(=O)NC1C2CC3CC1CC(C(N)=O)(C3)C2)S(=O)(=O)c1cccc(Cl)c1C` (stereo not drawn) [compound 215] are 0.004 µM and 0.284 µM.
In the same order, the values of `Cc1ccc(F)c(S(=O)(=O)NC(C)(C)C(=O)NC2C3CC4CC2CC(C(N)=O)(C4)C3)c1` (stereo not drawn) [compound 94, N-4-(2-(2-fluoro-5-methylphenylsulfonamido)-2-methylpropanamido)adamantane-1-carboxyamide] are 0.013 µM and 0.123 µM.
Consider `NC(=O)C12CC3CC(C1)C(NC(=O)C1(NS(=O)(=O)c4ccccc4[N+](=O)[O-])CCC1)C(C3)C2` (stereo not drawn) [compound 145, N-4-(1-(2-nitrophenylsulfonamido)cyclobutanecarboxyamido)adamantane-1-carboxyamide], for which the IC50 worked out at 0.08 µM on human 11β-HSD1 and 0.509 µM against mouse 11β-HSD1.
The corresponding values for `CC(C)(NS(=O)(=O)c1ccc(F)cc1Br)C(=O)NC1C2CC3CC1CC(C(N)=O)(C3)C2` (stereo not drawn) [compound 101, N-4-(2-(2-bromo-4-fluorophenylsulfonamido)-2-methylpropanamido)adamantane-1-carboxyamide] are 0.009 µM and 0.014 µM.
In the same order, the values of `CN(C(C)(C)C(=O)NC1C2CC3CC1CC(C(N)=O)(C3)C2)S(=O)(=O)c1c(Cl)cccc1Cl` (stereo not drawn) [compound 192, N-4-(2-(2,6-dichloro-N-methylphenylsulfonamido)-2-methylpropanamido)adamantane-1-carboxyamide] are 0.008 µM and 0.002 µM.
With `CC(C)(NS(=O)(=O)c1ccc(Cl)c(Cl)c1Cl)C(=O)NC1C2CC3CC(C2)CC1C3` (stereo not drawn) [compound 51, N-(adamantane-2-yl)-2-methyl-2-(2,3,4-trichlorophenylsulfonamido)propanamide], the IC50 came out at 0.183 µM against human 11β-HSD1 and 1.3 µM on mouse 11β-HSD1.
The corresponding values for `Cc1ccc(S(=O)(=O)NC2(C(=O)NC3C4CC5CC3CC(C(N)=O)(C5)C4)CCCCC2)cc1F` (stereo not drawn) [compound 187, N-4-(1-(3-fluoro-4-methylphenylsulfonamido)cyclohexanecarboxyamido)adamantane-1-carboxyamide] are 0.076 µM and more than 2.5 µM.
In the same order, the values of `CCN(CC)C(=O)C12CC3CC(C1)C(NC(=O)C(C)(C)NS(=O)(=O)c1ccccc1Cl)C(C3)C2` (stereo not drawn) [compound 227, 4-[2-(2-chloro-benzenesulfonylamino)-2-methyl-propionylamino]-adamantane-1-carboxylic acid diethylamide] are more than 2.5 µM and more than 2.5 µM.
In the same order, the values of `NC(=O)C12CC3CC(C1)C(NC(=O)C1(NS(=O)(=O)c4ccccc4Cl)CCCCC1)C(C3)C2` (stereo not drawn) [compound 179, N-4-(1-(2-chlorophenylsulfonamido)cyclohexanecarboxyamido)adamantane-1-carboxyamide] are 0.008 µM and 0.037 µM.
Regarding `CC(C)(NS(=O)(=O)c1ccc(Br)cc1)C(=O)NC1C2CC3CC1CC(C(N)=O)(C3)C2` (stereo not drawn) [compound 124], the IC50 was found to be 0.024 µM against human 11β-HSD1 and 0.22 µM on mouse 11β-HSD1.
Turning to `NC(=O)C12CC3CC(C1)C(NC(=O)C1(NS(=O)(=O)c4ccc(OC(F)F)cc4)CCC1)C(C3)C2` (stereo not drawn) [compound 166, N-4-(1-(4-(difluoromethoxy)phenylsulfonamido)cyclobutanecarboxyamido)adamantane-1-carboxyamide], the figures for the IC50 against human 11β-HSD1 and against mouse 11β-HSD1 were 0.724 µM and 0.559 µM, respectively.
In the same order, the values of `CC(C)(NS(=O)(=O)c1ccc(C(=O)NC2C3CC4CC(C3)CC2C4)cc1Cl)C(=O)NC1C2CC3CC(C2)CC1C3` (stereo not drawn) [compound 44] are 0.481 µM and 0.167 µM.
In the same order, the values of `CC(C)(NS(=O)(=O)c1cccc2cccnc12)C(=O)NC1C2CC3CC1CC(O)(C3)C2` (stereo not drawn) [compound 75, N-(5-hydroxyadamantane-2-yl)-2-methyl-2-(8-quinolinesulfonamido)propanamide] are 0.006 µM and 0.005 µM.
The corresponding values for “N-4-(2-methoxy-6-fluoro-N-ethylphenylsulfonamido)-2-methylpropanamido)adamantane-1-carboxyamide [compound 214]” are 0.012 µM and 0.006 µM.
As for `CCN(C(C)(C)C(=O)NC1C2CC3CC1CC(C(N)=O)(C3)C2)S(=O)(=O)c1ccccc1N` (stereo not drawn) [compound 224, N-4-(2-(2-amino-N-ethylphenylsulfonamido)-2-methylpropanamido)adamantane-1-carboxyamide], the IC50 at human 11β-HSD1 is 0.011 µM; against mouse 11β-HSD1, 0.154 µM.
Consider `Cc1ccc(S(=O)(=O)NC2(C(=O)NC3C4CC5CC3CC(C(N)=O)(C5)C4)CCC2)cc1[N+](=O)[O-]` (stereo not drawn) [compound 150, N-4-(1-(3-nitro-4-methylphenylsulfonamido)cyclobutanecarboxyamido)adamantane-1-carboxyamide], for which the IC50 came out at 0.639 µM on human 11β-HSD1 and 0.187 µM on mouse 11β-HSD1.
In the same order, the values of `COc1ccc(S(=O)(=O)NC(C)(C)C(=O)NC2C3CC4CC2CC(C(N)=O)(C4)C3)cc1[N+](=O)[O-]` (stereo not drawn) [compound 111, N-4-(2-(3-nitro-4-methoxyphenylsulfonamido)-2-methylpropanamido)adamantane-1-carboxyamide] are 1.3 µM and 2.46 µM.

Values taken from US9073830B2 (Hyundai Pharm Co., Ltd., priority 2011, dated 2015).
